# Experimental data from patent US10053443B2, “2-phenylbenzofuran derivatives, method for preparing the same and use of the same for treating inflammatory disease” (KOREA RESEARCH INSTITUTE OF BIOSCIENCE AND BIOTECHNOLOGY, priority 2014, dated 2018).
# pIC50: −log10 of the molar value.
# Assays:
# [1] = tested on: Raw 264.7 (ATCC TIB71) cells; assay: Evaluation of cell survival rate of macrophages (MTT); format: cell-based, mouse; settings: Raw 264.7, 10 μM, 24 hours
# Description: Raw 264.7 (ATCC TIB71) cells, the mouse derived macrophages', were inoculated in a 96-well plate containing DMEM (Dulbecco's modified Eagle medium; Welgene, Korea) supplemented with 10% FBS (Fetal Bovine Serum), 2 mM glutamine, penicillin (100 unit/ml), and streptomycin (100 μg/ml) at the density of 1×10^4 cells/well. The cells were cultured in 5% CO2 at 37° C. for 4 hours to attach the cells onto the plate. Next, the cells were treated with each sample at different concentrations, followed by further culture for 24 hours. To investigate the cell survival rate, 5 mg/ml of MTT (3-(4,5-dimethylthiazol-2-yl)-2,5-diphenyltetrazoliumbromide, Amresco, OH, USA) was distributed thereto (10 μl/well), followed by culture for 4 hours. Then, the supernatant was eliminated. Formazan reduced from MTT by mitochondria was dissolved in 100 μl of DMSO and then OD570 was measured. 0.2% DMSO was used for the negative control.
# [2] = tested on: interleukin-6 (IL-6) generation; assay: Inhibition of interleukin-6 (IL-6) generation in LPS-treated Raw 264.7 cells (ELISA); format: cell-based, mouse; settings: Mus musculus, RAW264.7; Raw 264.7, LPS treated; read-out: Grades of IC50 on IL-6 generation
# Description: Raw 264.7 cells were distributed by the same manner as described in Experimental Example <2-1>, and IL-6 included in the supernatant treated with each sample at different concentrations was measured by enzyme-linked immunosorbent assay (IL-6 ELISA kit, BD Bioscience, San Diego, Calif.).
# Particularly, 10-fold diluted supernatant was distributed in a 96-well plate on which IL-6 antibody was attached, followed by adhesion for 2 hours. The supernatant remaining after the adhesion was washed with a washing buffer. The detection antibody and HRP were adhered on the washed plate for 1 hour. The remaining antibody was washed. Color development was induced by using TMB substrate. The reaction was terminated with sulfuric acid solution. Then, OD450 was measured. IL-6 in the supernatant was quantified by using the standard curve made with the standard IL-6 included in the kit. IL-6 suppression rate was calculated by measuring the same concentration that could inhibit IL-6 generation up to 50% in the LPS treated group and the results are shown in Table 8.
# [3] = Toxicity test, single oral administration: toxicological changes in abdomen, chest and major organs (autopsy); format: in vivo; settings: for Clinical sign: Abdominal cavity (toxicological changes, animals affected/total) / Clinical sign: Major organs (toxicological changes, animals affected/total) / Clinical sign: Thoracic cavity (toxicological changes, animals affected/total) / Mortality (animals dead/total) / Clinical sign: Abdominal cavity (toxicological changes), Total / Clinical sign: Major organs (toxicological changes), Total / Clinical sign: Thoracic cavity (toxicological changes), Total / Mortality, Total: single oral administration, mouse
# Text: 1. Test Material and Control Material • Test material: compound of Example 4 • Storage condition: frozen storage • Control material: 10% DMSO+10% Tween 20 in PBS
# 2. Test System • Animal: female Balb/c • Animal provider: Koatech • Age and weight of animal • Age at the time of arrival: 5 week • Number at the time of arrival: 28 • Age at the start of administration: 6 week • Number at the start of administration: 28 ? • Weight at the start of administration: 16.1˜16.5 g
# 3. Administration Method and Preparation of Test Material • Administration method: single oral administration • Preparation of test material: Test materials were prepared by using 10% DMSO+10% Tween-20 in PBS as a solvent for each dose. The preparation was carried out immediately before the administration
# On the 10th day after the administration, all the surviving animals were anesthetized with CO2 gas. Laparotomy was performed and the animals were sacrificed by venesection from the abdominal aorta. Then, all the internal organs of the animal were observed by the naked eye.
# The compound of Example 4 was orally administered once to female Balb/c mouse at the doses of 250, 500, and 1000 mg/kg in order to obtain the information on acute toxicity of the compound of Example 4, followed by investigation of death rate, general symptoms, and weight changes for 10 days by autopsy.
# After the administration of the compound of Example 4, the mice were autopsied on the last day, and the toxicological changes in the abdomen, chest and major organs were observed.
smiles,measurement,setting,value
"COc1cc(CCCO)cc2cc(-c3ccc(C)cc3)oc12 [Example 4, 3-(7-methoxy-2-p-tolylbenzofuran-5-yl)propane-1-ol]","Grades of cell survival rate (%, in 10 μM)",[1],A (A: 90<A≤100)
same,pIC50,[2],≥ 5.00
same,"Clinical sign: Abdominal cavity (toxicological changes, animals affected/total)","[3]; 250 mg/kg, Day 1",0/7
same,"Clinical sign: Major organs (toxicological changes, animals affected/total)","[3]; 250 mg/kg, Day 1",0/7
same,"Clinical sign: Thoracic cavity (toxicological changes, animals affected/total)","[3]; 250 mg/kg, Day 1",0/7
same,Mortality (animals dead/total),"[3]; 250 mg/kg, Day 1",0/7
same,"Clinical sign: Abdominal cavity (toxicological changes, animals affected/total)","[3]; 250 mg/kg, Day 7",0/7
same,"Clinical sign: Major organs (toxicological changes, animals affected/total)","[3]; 250 mg/kg, Day 7",0/7
same,"Clinical sign: Thoracic cavity (toxicological changes, animals affected/total)","[3]; 250 mg/kg, Day 7",0/7
same,Mortality (animals dead/total),"[3]; 250 mg/kg, Day 7",0/7
same,"Clinical sign: Abdominal cavity (toxicological changes, animals affected/total)","[3]; 250 mg/kg, Day 8",0/7
same,"Clinical sign: Major organs (toxicological changes, animals affected/total)","[3]; 250 mg/kg, Day 8",0/7
same,"Clinical sign: Thoracic cavity (toxicological changes, animals affected/total)","[3]; 250 mg/kg, Day 8",0/7
same,Mortality (animals dead/total),"[3]; 250 mg/kg, Day 8",0/7
same,"Clinical sign: Abdominal cavity (toxicological changes, animals affected/total)","[3]; 250 mg/kg, Day 9",0/7
same,"Clinical sign: Major organs (toxicological changes, animals affected/total)","[3]; 250 mg/kg, Day 9",0/7
same,"Clinical sign: Thoracic cavity (toxicological changes, animals affected/total)","[3]; 250 mg/kg, Day 9",0/7
same,Mortality (animals dead/total),"[3]; 250 mg/kg, Day 9",0/7
same,"Clinical sign: Abdominal cavity (toxicological changes, animals affected/total)","[3]; 250 mg/kg, Day 10",0/7
same,"Clinical sign: Major organs (toxicological changes, animals affected/total)","[3]; 250 mg/kg, Day 10",0/7
same,"Clinical sign: Thoracic cavity (toxicological changes, animals affected/total)","[3]; 250 mg/kg, Day 10",0/7
same,Mortality (animals dead/total),"[3]; 250 mg/kg, Day 10",0/7
same,"Clinical sign: Abdominal cavity (toxicological changes), Total",[3]; 250 mg/kg,0
same,"Clinical sign: Major organs (toxicological changes), Total",[3]; 250 mg/kg,0
same,"Clinical sign: Thoracic cavity (toxicological changes), Total",[3]; 250 mg/kg,0
same,"Mortality, Total",[3]; 250 mg/kg,0
same,"Clinical sign: Abdominal cavity (toxicological changes, animals affected/total)","[3]; 500 mg/kg, Day 1",0/7
same,"Clinical sign: Major organs (toxicological changes, animals affected/total)","[3]; 500 mg/kg, Day 1",0/7
same,"Clinical sign: Thoracic cavity (toxicological changes, animals affected/total)","[3]; 500 mg/kg, Day 1",0/7
same,Mortality (animals dead/total),"[3]; 500 mg/kg, Day 1",0/7
same,"Clinical sign: Abdominal cavity (toxicological changes, animals affected/total)","[3]; 500 mg/kg, Day 7",0/7
same,"Clinical sign: Major organs (toxicological changes, animals affected/total)","[3]; 500 mg/kg, Day 7",0/7
same,"Clinical sign: Thoracic cavity (toxicological changes, animals affected/total)","[3]; 500 mg/kg, Day 7",0/7
same,Mortality (animals dead/total),"[3]; 500 mg/kg, Day 7",0/7
same,"Clinical sign: Abdominal cavity (toxicological changes, animals affected/total)","[3]; 500 mg/kg, Day 8",0/7
same,"Clinical sign: Major organs (toxicological changes, animals affected/total)","[3]; 500 mg/kg, Day 8",0/7
same,"Clinical sign: Thoracic cavity (toxicological changes, animals affected/total)","[3]; 500 mg/kg, Day 8",0/7
same,Mortality (animals dead/total),"[3]; 500 mg/kg, Day 8",0/7
same,"Clinical sign: Abdominal cavity (toxicological changes, animals affected/total)","[3]; 500 mg/kg, Day 9",0/7
same,"Clinical sign: Major organs (toxicological changes, animals affected/total)","[3]; 500 mg/kg, Day 9",0/7
same,"Clinical sign: Thoracic cavity (toxicological changes, animals affected/total)","[3]; 500 mg/kg, Day 9",0/7
same,Mortality (animals dead/total),"[3]; 500 mg/kg, Day 9",0/7
same,"Clinical sign: Abdominal cavity (toxicological changes, animals affected/total)","[3]; 500 mg/kg, Day 10",0/7
same,"Clinical sign: Major organs (toxicological changes, animals affected/total)","[3]; 500 mg/kg, Day 10",0/7
same,"Clinical sign: Thoracic cavity (toxicological changes, animals affected/total)","[3]; 500 mg/kg, Day 10",0/7
same,Mortality (animals dead/total),"[3]; 500 mg/kg, Day 10",0/7
same,"Clinical sign: Abdominal cavity (toxicological changes), Total",[3]; 500 mg/kg,0
same,"Clinical sign: Major organs (toxicological changes), Total",[3]; 500 mg/kg,0
same,"Clinical sign: Thoracic cavity (toxicological changes), Total",[3]; 500 mg/kg,0
same,"Mortality, Total",[3]; 500 mg/kg,0
same,"Clinical sign: Abdominal cavity (toxicological changes, animals affected/total)","[3]; 1000 mg/kg, Day 1",0/7
same,"Clinical sign: Major organs (toxicological changes, animals affected/total)","[3]; 1000 mg/kg, Day 1",0/7
same,"Clinical sign: Thoracic cavity (toxicological changes, animals affected/total)","[3]; 1000 mg/kg, Day 1",0/7
same,Mortality (animals dead/total),"[3]; 1000 mg/kg, Day 1",0/7
same,"Clinical sign: Abdominal cavity (toxicological changes, animals affected/total)","[3]; 1000 mg/kg, Day 7",0/7
same,"Clinical sign: Major organs (toxicological changes, animals affected/total)","[3]; 1000 mg/kg, Day 7",0/7
same,"Clinical sign: Thoracic cavity (toxicological changes, animals affected/total)","[3]; 1000 mg/kg, Day 7",0/7
same,Mortality (animals dead/total),"[3]; 1000 mg/kg, Day 7",0/7
same,"Clinical sign: Abdominal cavity (toxicological changes, animals affected/total)","[3]; 1000 mg/kg, Day 8",0/7
same,"Clinical sign: Major organs (toxicological changes, animals affected/total)","[3]; 1000 mg/kg, Day 8",0/7
same,"Clinical sign: Thoracic cavity (toxicological changes, animals affected/total)","[3]; 1000 mg/kg, Day 8",0/7
same,Mortality (animals dead/total),"[3]; 1000 mg/kg, Day 8",0/7
same,"Clinical sign: Abdominal cavity (toxicological changes, animals affected/total)","[3]; 1000 mg/kg, Day 9",0/7
same,"Clinical sign: Major organs (toxicological changes, animals affected/total)","[3]; 1000 mg/kg, Day 9",0/7
same,"Clinical sign: Thoracic cavity (toxicological changes, animals affected/total)","[3]; 1000 mg/kg, Day 9",0/7
same,Mortality (animals dead/total),"[3]; 1000 mg/kg, Day 9",0/7
same,"Clinical sign: Abdominal cavity (toxicological changes, animals affected/total)","[3]; 1000 mg/kg, Day 10",0/7
same,"Clinical sign: Major organs (toxicological changes, animals affected/total)","[3]; 1000 mg/kg, Day 10",0/7
same,"Clinical sign: Thoracic cavity (toxicological changes, animals affected/total)","[3]; 1000 mg/kg, Day 10",0/7
same,Mortality (animals dead/total),"[3]; 1000 mg/kg, Day 10",0/7
same,"Clinical sign: Abdominal cavity (toxicological changes), Total",[3]; 1000 mg/kg,0
same,"Clinical sign: Major organs (toxicological changes), Total",[3]; 1000 mg/kg,0
same,"Clinical sign: Thoracic cavity (toxicological changes), Total",[3]; 1000 mg/kg,0
same,"Mortality, Total",[3]; 1000 mg/kg,0
same,"toxicological changes (abdomen, chest and major organs)","[3]; 250, 500, 1000 mg/kg single oral, autopsy on last day",not observed
